Results: patent US10293004B2, “Butyrate-producing bacterium and use thereof” (KABUSHIKI KAISHA YAKULT HONSHA, priority 2014, dated 2019)

Experiments:
[1] = Turbidity (OD660) after anaerobic culture of bacterial strains in PYGA, PYSA or PYXA medium
Description: A frozen stock solution of each bacterial strain (a 10% (w/v) skim milk-2% sodium glutamate solution in which bacterial cells were suspended) (cell count: 2.0 to 5.5×10^10 cells/mL) was thawed, and the solution was inoculated at 1% to 4 mL of a PY liquid medium supplemented with 33 mM sodium acetate and 0.5 (w/v) % glucose (PYGA medium), followed by anaerobic culture at 37° C. for 24 hours. After the culture, the culture solution was inoculated at 1% to a fresh PYGA medium, followed by anaerobic culture at 37° C. for 24 hours. After the culture, the turbidity (OD660) of the culture solution was measured. Then, the culture solution was inoculated at 1% to a PY medium containing 0.5 (w/v) % L-sorbose or D-xylitol and 33 mM sodium acetate (the medium containing L-sorbose: PYSA, and the medium containing D-xylitol: PYXA), followed by anaerobic culture at 37° C. for 24 hours. Then, the turbidity (OD660) was measured.

mouse C57BL/6J = test: Single oral dose test of YIT 12355 to mouse given indigestible saccharide; format: in vivo
Description: Mice were acclimatized and raised with F2 feed for 1 week and then divided into 4 groups such that the average body weight was almost equal among these groups. A control diet (Table 12) was administered thereto for 1 week. Then, the control diet was administered to the control group (−/− group) and the AH/− group for 2 weeks while purified feed containing maltitol (MAL-containing diet) was administered to the −/MAL group and the AH/MAL group for 2 weeks. A live cell suspension of YIT 12355 was administered at a single dose using a probe after the administration of the control diet for 1 week. At the final day of the test, each mouse was dissected, and the cecal contents were recovered. The cecal contents were subjected to the cell count measurement of YIT 12355. • Test material: Maltitol (5% mixed feed administration) • Administered bacterial strain: YIT 12355 • Animal species: Mouse C57BL/6J (4 weeks old; CLEA Japan, Inc.) • Group configuration: 7 mice×4 groups The bacterial solution (viable count: 3.1×10^9 cfu/mL, total cell count: 1.9×10^10 cells/mL) prepared in the preceding paragraph 2) was orally administered at a single dose of 0.2 mL (viable count: 6.2×10^8 cfu/mouse, total cell count: 3.8×10^9 cells/mouse) to each mouse using a probe. To the control group and the −/MAL group, 0.2 mL of physiological saline was administered instead of the bacterial solution. […] Then, the cecal contents were recovered. The cecal contents were diluted 10-fold with PBS and subjected to DNA extraction. DNA was extracted by the bead-phenol method described in the paragraph 4)a) of Example 5 from the 10-fold diluted solution of the intestinal tract contents. The cell count of YIT 12355 was measured by quantitative PCR using the obtained DNA as a template and the bacterial species-specific primers described in the paragraph 4)a) of Example 5. After fixation of a portion of the 10-fold diluted solution of the intestinal tract contents in a 4% solution of paraformaldehyde in PBS, the total cell count was measured by the DAPI counting method. The cell count of YIT 12355 was divided by the total cell count to calculate an occupancy (%). (Occupancy of YIT 12355) (%)=(Cell count of YIT 12355/Total cell count)×100 (Expression 5)

[2] = summary in words of Table 13, single dose

Question: With “A. hadrus (Eubacterium hadrum) YIT 12355 (NITE BP-01832)” as the substance, how does the “Turbidity (OD660)” value ([1]; after anaerobic culture at 37° C. for 24 hours in PYGA liquid medium) read?
Answer: 3.55

Question: What about the “Turbidity (OD660)” value ([1]; anaerobic culture at 37° C. for 24 hours of 1% inoculum in PYSA (L-sorbose)) of the same substance?
Answer: 2.39

Question: What about the “Turbidity (OD660)” value ([1]; anaerobic culture at 37° C. for 24 hours of 1% inoculum in PYXA (D-xylitol)) of the same substance?
Answer: 1.47

Question: What about the Total cell count (mouse C57BL/6J; cecum, DAPI counting method, single oral dose) of the same substance?
Answer: 10.9 ± 0.4 log10 (cells/g contents)

Question: What about the “Cell count, A. hadrus YIT 12355” value (mouse C57BL/6J; cecum, quantitative PCR, single oral dose) of the same substance?
Answer: 8.0 ± 0.3 log10 (cells/g contents)

Question: And the Occupancy (mouse C57BL/6J; cecum, ratio to total cell count, single oral dose)?
Answer: 0.3%

Question: And the “cell count of YIT 12355” value (mouse C57BL/6J; [2])?
Answer: largely changes neither

Question: What about the “occupancy of YIT 12355” value (mouse C57BL/6J; [2]) of the same substance?
Answer: largely changes neither
